Where two headings read alike, the source gives them in different places.
How the values were obtained:
Assay type in all cases: biochemical
[1] = biological target: T1, BuChE (Homo sapiens, UniProt P06276); test: In vitro BuChE inhibitory assay (Ellman-type, human plasma); settings: BuChE from human plasma, BuSCh substrate, 60 min, 37 °C
T1 construct: BuChE was obtained from human plasma (purchased from Beijing Red Cross Blood Center China); tissue Beijing Red Cross Blood Center China; host or cells: human plasma, diluted 200-fold with 0.05 M PBS
T1 sequence (P06276 29-602): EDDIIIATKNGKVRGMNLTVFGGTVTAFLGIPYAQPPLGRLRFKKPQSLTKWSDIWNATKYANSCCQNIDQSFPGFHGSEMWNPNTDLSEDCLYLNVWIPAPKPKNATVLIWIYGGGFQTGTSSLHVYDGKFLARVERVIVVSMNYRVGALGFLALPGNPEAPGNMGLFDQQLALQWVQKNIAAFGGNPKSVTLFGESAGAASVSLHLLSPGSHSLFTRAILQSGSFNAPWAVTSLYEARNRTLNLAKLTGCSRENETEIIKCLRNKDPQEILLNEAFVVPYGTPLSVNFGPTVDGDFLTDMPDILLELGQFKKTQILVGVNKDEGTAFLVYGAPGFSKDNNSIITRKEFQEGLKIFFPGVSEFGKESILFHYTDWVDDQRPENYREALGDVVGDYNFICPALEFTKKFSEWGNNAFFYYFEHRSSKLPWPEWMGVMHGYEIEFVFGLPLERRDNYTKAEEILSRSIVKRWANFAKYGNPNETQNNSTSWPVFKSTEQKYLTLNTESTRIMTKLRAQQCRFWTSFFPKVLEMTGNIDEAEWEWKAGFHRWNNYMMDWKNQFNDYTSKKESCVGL
Protocol: BuChE was obtained from human plasma (purchased from Beijing Red Cross Blood Center China). Before utilization, human plasma was diluted 200-fold with 0.05 M PBS. Five serial dilutions of samples are determined to obtain BuChE inhibitory activity. The BuChE reaction system is similar to the assay above, including 10 μL samples, 40 μL diluted plasma sample, 70 μL 7.5 mM S-butyrylthiocholine (BuSCh), and 80 μL 0.25 mg/mL DTNB. After incubation at 37 °C for 60 min, the absorbance intensity of the system was measured at wavelength 412 nm.

[2] = biological target: T2, AChE (Rattus norvegicus, UniProt P37136); test: In vitro AChE inhibitory assay (Ellman's method)
T2 construct: AChE was derived from the SD rat brains by homogenizing the brain with 20-fold saline solution; from tissue; host or cells: SD rat brain homogenate (supernatant after 800 x g)
T2 sequence (P37136 32-614): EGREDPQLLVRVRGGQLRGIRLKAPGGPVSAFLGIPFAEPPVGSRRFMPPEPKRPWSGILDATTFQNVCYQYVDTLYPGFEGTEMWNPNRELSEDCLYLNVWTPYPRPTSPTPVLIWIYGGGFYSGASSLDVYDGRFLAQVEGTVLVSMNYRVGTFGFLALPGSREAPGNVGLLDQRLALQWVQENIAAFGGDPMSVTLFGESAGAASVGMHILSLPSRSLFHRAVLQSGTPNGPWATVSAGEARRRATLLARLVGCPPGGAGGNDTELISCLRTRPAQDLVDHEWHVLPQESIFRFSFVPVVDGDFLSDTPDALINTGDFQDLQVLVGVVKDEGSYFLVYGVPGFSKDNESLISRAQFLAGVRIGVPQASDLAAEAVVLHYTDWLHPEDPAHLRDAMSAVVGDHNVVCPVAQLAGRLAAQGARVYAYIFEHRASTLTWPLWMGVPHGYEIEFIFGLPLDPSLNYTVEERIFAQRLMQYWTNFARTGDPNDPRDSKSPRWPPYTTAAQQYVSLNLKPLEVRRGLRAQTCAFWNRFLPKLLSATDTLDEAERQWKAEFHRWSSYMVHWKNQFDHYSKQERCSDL
Protocol: The AChE inhibitory activity of DL0410 derivatives was assessed by determining the hydrolysis product of Acetylthiocholine iodide (ASCh) using the Ellman’s method. 5,5′-Dithiobis (2-nitrobenzoic acid) (DTNB), and the substrate ASCh were purchased from Sigma Aldrich. AChE was derived from the SD rat brains by homogenizing the brain with 20-fold saline solution, and then centrifuged at 800× g for 20 min at 4 °C. To acquire the inhibition of AChE activity, five serial dilutions of samples were measured. A Spectra Max M5 microplate reader (Molecular Devices, Sunnyvale, CA, USA) was utilized for the assay for AChE reaction system with 96-well plates in 0.05 M phosphate-buffered solution (PBS). The reaction system includes 10 μL sample, 20 μL AChE solution, 60 μL 3.75 mM ASCh, and 80 μL 0.25 mg/mL DTNB. It took 60 min at 37 °C for incubation, and the absorbance intensity of AChE reaction system was quantified at 412 nm.

[3] = biological target: T2, AChE; test: AChE kinetic study (Lineweaver-Burk and Dixon plots); settings: for Ki: Dixon plot, inhibitor 0.1, 0.3, 1 μM, substrate 1.25-20 mM, n = 3; for type of inhibition of AChE: Lineweaver-Burk plot
Protocol: (§1) To have an insight into how structure modification affected the inhibitory activities, molecular docking and kinetics studies were performed for DL0410, compounds 6-1 and 7-6. After the docking parameters were set, the crystal poses of donepezil and N-((1-benzylpiperidin-3-yl)methyl)-N-(2-methoxyethyl) naphthalene-2-sulfonamide were first re-docked into the binding site pocket of AChE and BuChE, respectively. Donepezil is a mixed-type inhibitor of AChE used in the palliative treatment of AD [25]. N-((1-benzylpiperidin-3-yl)methyl)-N-(2-methoxyethyl) naphthalene-2-sulfonamide is a potent, selective, and reversible human BuChE inhibitor, which can improve memory, cognitive functions, and learning abilities. The root mean square deviation (RMSD) values between the docking and initial poses were 0.872 and 1.253, respectively, which implied that the docking models built by CDOCKER could reproduce the crystal binding model and were suitable for the AChE and BuChE system. DL0410 and two highly inhibitory compounds (compounds 6-1 and 7-6) were docked to the active pockets of AChE and BuChE. For AChE, these three compounds could dock to TRP86 of CAS via π-Alkyl interaction or electrostatic attraction, near the bottom of the active site gorge, and TRP286 of PAS via π-π stacking interaction, near its entrance (Figure 4). The value of –CDOCKER INTERACTION ENERGY was followed by compound 6-1 > compound 7-6 > DL0410. The dibenzofuran of compound 6-1 formed stronger π-π stacking interaction with TYR341 and TRP286, and the carbonyl formed hydrogen bond with TYR72. In addition, hydrogen bond interaction of compound 7-6 made it high inhibition for AChE. […] There existed more hydrogen bonds for compound 7-6, and a highly electronegative fluorine atom caused its strong interaction with GLY116. Therefore, the fluorine atom substitution and the structure of dibenzofuran made compounds 6-1 and 7-6 different from DL0410. Compound 7-6 formed more hydrogen bonds with AChE and BuChE. The structure of dibenzofuran caused the extension direction of compound 6-1 to change, which was more conducive to forming electrostatic attractive interactions. In silico results were consistent with the kinetics studies of AChE and BuChE. […] The inhibition kinetic data were analyzed by Lineweaver-Burk and Dixon plots. The Lineweaver-Burk plot provides a useful means of distinguishing among competitive inhibition, non-competitive inhibition, and mixed inhibition, whereas the merit of the Dixon plot is that one can expediently determine Ki from the kinetic data. […] The results of the kinetics studies also validated that the three compounds were, indeed, capable of binding to CAS and PAS of AChE/BuChE. The PAS site could […] their catalytic efficiency, which led to high inhibitory effects.
(§2) Figure 6 The Lineweaver-Burk plots of DL0410, compound 6-1 and compound 7-6 on AChE inhibitory activity (A–C). The Lineweaver-Burk plots of DL0410, compound 6-1 and compound 7-6 on BuChE inhibitory activity (D–F). Kinetic analysis of AChE and BuChE was performed by using three effective concentrations of DL0410, compound 6-1 and compound 7-6 (0.1, 0.3, 1 μM for AChE, and 0.3, 1, 3 μM for BuChE) with the incubation of five different substrate concentrations (1.25, 2.5, 5, 10, 20 mM for AChE, and 2, 4, 8, 16, 32 mM for BuChE). […] (n = 3; a = mM^−1; b = min/ΔA).
(§3) Figure 7 Ki values were determined by Dixon plots. […] Figure D–F presented the Dixon plots of DL0410, compound 6-1 and compound 7-6 on BuChE inhibitory activity, respectively. […] (n = 3; b = min/ΔA).
(§4) It is important to determinate the type of inhibition in an effort to understand the mechanism of inhibition and the binding sites of the inhibitor sites. […]

[4] = biological target: T1, BuChE; test: BuChE kinetic study (Lineweaver-Burk and Dixon plots); settings: for Ki: Dixon plot, inhibitor 0.3, 1, 3 μM, five substrate concentrations, n = 3; for type of inhibition of BuChE: Lineweaver-Burk plot
Protocol: as §1, §2, §3, §4

[5] = AChE from SD rat brain homogenate, ASCh substrate, 60 min, 37 °C, read-out: IC50(μM) AChE

SMILES | IC50 ([1]; read-out: IC50(μM) BuChE) [µM] | IC50 [2, 5] [µM] | other results
O=C(c1ccc(-c2ccc(C(=O)N3CCCCC3)cc2)cc1)N1CCCCC1 [Compound 1-2] | 2.22 | 0.84 | 
O=C(CCCN1CCCCC1)c1ccc(-c2ccc(C(=O)CCN3CCCCC3)cc2)cc1 [Compound 1-5] | 1.88 | 0.41 | 
O=C(CCN1CCCCC1)c1ccc(-c2ccc(C(=O)CN3CCCCC3)cc2)cc1 [Compound 1-6] | 4.87 | 3.32 | 
CC1CCN(CC(=O)c2ccc(-c3ccc(C(=O)CN4CCC(C)CC4)cc3)cc2)CC1 [Compound 1-7] | 36.6 | 49.1 | 
CN(C)CCC(=O)c1ccc(-c2ccc(C(=O)CCN(C)C)cc2)cc1 [Compound 1-8] | < 1 |  | 
CCN(CC)CCC(=O)c1ccc(-c2ccc(C(=O)CCN(CC)CC)cc2)cc1 [Compound 1-9] | < 1 |  | 
O=C(CCN1CCOCC1)c1ccc(-c2ccc(C(=O)CCN3CCOCC3)cc2)cc1 [Compound 1-15] | < 1 |  | 
O=C(CCNC1CCCCC1)c1ccc(-c2ccc(C(=O)CCNC3CCCCC3)cc2)cc1 [Compound 1-16] | 1.91 | 2.15 | 
CN(CCC(=O)c1ccc(-c2ccc(C(=O)CCN(C)Cc3ccccc3)cc2)cc1)Cc1ccccc1 [Compound 1-17] | 6.56 | 3.33 | 
COc1ccc2[nH]cc(CCNCC(=O)c3ccc(-c4ccc(C(=O)CNCCc5c[nH]c6ccc(OC)cc56)cc4)cc3)c2c1 [Compound 1-18] | > 200 | 9.52 | 
O=C(CCN1CCC(N2CCCCC2)CC1)c1ccc(-c2ccc(C(=O)CCN3CCC(N4CCCCC4)CC3)cc2)cc1 [Compound 1-19] | > 200 | 0.25 | 
O=C(CN1CCCCC1)c1ccc(CCc2ccc(C(=O)CN3CCCCC3)cc2)cc1 [Compound 2-1] |  | 75.5 | 
O=C(CCN1CCCCC1)c1ccc(CCc2ccc(C(=O)CCN3CCCCC3)cc2)cc1 [Compound 2-3] | 3.41 |  | 
O=C(CCCCN1CCC1)c1ccc(CCc2ccc(C(=O)CCCCN3CCC3)cc2)cc1 [Compound 2-6] | > 200 | 12.2 | 
CN(C)CCCCC(=O)c1ccc(CCc2ccc(C(=O)CCCCN(C)C)cc2)cc1 [Compound 2-10] | 2.77 | 3.96 | 
O=C(CCN1CCCCC1)c1ccc(Cc2ccc(C(=O)CCN3CCCCC3)cc2)cc1 [Compound 3-1] | 4.2 | 4.11 | 
O=C(CCN1CCOCC1)c1ccc(Cc2ccc(C(=O)CCN3CCOCC3)cc2)cc1 [Compound 3-2] | 7.65 | 7.09 | 
CN1CCN(CC(=O)c2ccc(Cc3ccc(C(=O)CN4CCN(C)CC4)cc3)cc2)CC1 [Compound 3-3] | 40 | 48.5 | 

SMILES | IC50 ([1]; read-out: IC50(μM) BuChE) [µM] | IC50 [2, 5] [µM] | other results
CN1CCN(CCC(=O)c2ccc(Cc3ccc(C(=O)CCN4CCN(C)CC4)cc3)cc2)CC1 [Compound 3-4] | 24.4 | 7.55 | 
CN(C)CCC(=O)c1ccc(Cc2ccc(C(=O)CCN(C)C)cc2)cc1 [Compound 3-5] | 1.72 | 3.32 | 
CN(C)CCC(=O)c1ccc(C(C)(C)c2ccc(C(=O)CCN(C)C)cc2)cc1 [Compound 4-1] | 6 | 4.89 | 
CN(C)CC(=O)c1ccc(C(C)(C)c2ccc(C(=O)CN(C)C)cc2)cc1 [Compound 4-2] | 5.95 | 54.4 | 
CC(C)(c1ccc(C(=O)CCN2CCCCC2)cc1)c1ccc(C(=O)CCN2CCCCC2)cc1 [Compound 4-3] | 3.09 | 3.07 | 
CC(C)(c1ccc(C(=O)CN2CCCCC2)cc1)c1ccc(C(=O)CN2CCCCC2)cc1 [Compound 4-4] | 2.93 | 17.4 | 
CC(C)(c1ccc(C(=O)CCN2CCOCC2)cc1)c1ccc(C(=O)CCN2CCOCC2)cc1 [Compound 4-5] | 16.3 | 15.7 | 
O=C(CCN1CCCCC1)c1ccc(Oc2ccc(C(=O)CCN3CCCCC3)cc2)cc1 [Compound 5-1] | 5.68 | 0.89 | 
O=C(CCN1CCCCC1)c1ccc(Sc2ccc(C(=O)CCN3CCCCC3)cc2)cc1 [Compound 5-2] | 3.44 | 3.89 | 
O=C(CCN1CCCCC1)c1ccc([S+]([O-])c2ccc(C(=O)CCN3CCCCC3)cc2)cc1 [Compound 5-3] | > 200 | 14.1 | 
O=C(CCN1CCCCC1)c1ccc2oc3ccc(C(=O)CCN4CCCCC4)cc3c2c1 [Compound 6-1] | 0.61 | 0.06 | Ki [3]: 420 ± 40 nM; type of inhibition of AChE [3]: mixed-type; Ki [4]: 740 ± 160 nM; type of inhibition of BuChE [4]: mixed-type
O=C(CCN1CCCCC1)c1ccc2sc3ccc(C(=O)CCN4CCCCC4)cc3c2c1 [Compound 6-2] | 1.71 | 2.03 | 
C=C(CN1CCCCC1)C(=O)c1ccc(-c2ccc(C(=O)C(=C)CN3CCCCC3)cc2)cc1 [Compound 7-2] | 1.55 | 17.1 | 
CCN(C)C(=O)Oc1ccc(-c2ccc(OC(=O)N(C)CC)cc2)cc1 [Compound 7-3] |  |  | IC50 ([1]; IC50(μM) BuChE): 0.06 µM; IC50 [2]: 34.1 µM
O=C(COCCN1CCCCC1)c1ccc(-c2ccc(C(=O)OCCN3CCCCC3)cc2)cc1 [Compound 7-4] | > 200 | 18.5 | 
CCN(C)C(=O)Oc1ccc(-c2ccc(C(=O)CCN3CCCCC3)cc2)cc1 [Compound 7-5] |  |  | IC50 ([1]; IC50(μM) BuChE): 0.2 µM; IC50 [2]: 3.35 µM
O=C(CCN1CCCCC1)c1ccc(-c2ccc(C(=O)CCN3CCCCC3)cc2F)cc1 [Compound 7-6] | 0.44 | 0.03 | Ki [3]: 550 ± 200 nM; type of inhibition of AChE [3]: mixed-type; Ki [4]: 1630 ± 180 nM; type of inhibition of BuChE [4]: mixed-type
O=C(CCN1CCCCC1)c1ccc2c(c1)c1cc(C(=O)CCN3CCCCC3)ccc1n2C(=O)CCN1CCCCC1 [Compound 7-7] | 4.79 | 1.42 | 

— publication PMC6152156 (Molecules : A Journal of Synthetic Chemistry and Natural …, 2017)
